The experiment concerns rabbit skeletal myofibrils (approximately 90% fast fibers). The experiment in a line: Activation of fast skeletal myofibrils (PUMA coupled-enzyme ATPase assay). The class given is biochemical. Conditions: AC1.4 = concentration at which the compound increased the enzymatic activity by 40%; myofibril suspension at calcium level pCa25; PM12 buffer pH 6.8. The method, then:
Preparation of fast skeletal myofibrils. Rabbit skeletal myofibrils were prepared based upon the method of Herrmann et al. (Biochem. 32(28):7255-7263(1993). Myofibrils were prepared from rabbit psoas muscle purchased from Pel-Freez Biologicals (Arkansas) within 2 days of ordering, stored on ice. Minced muscle was homogenized in 10 volumes of ice-cold “standard” buffer (50 mM Tris, pH 7.4, 0.1 M potassium acetate, 5 mM KCl, 2 mM DTT, 0.2 mM PMSF, 10 μM leupeptin, 5 μM pepstatin, and 0.5 mM sodium azide) containing 5 mM EDTA and 0.5% Triton X-100 using an Omni-Macro homogenizer. Myofibrils were recovered by low speed centrifugation (3000 rpm for 10 minutes) and washed 2 times in the Triton X-100 containing buffer to ensure removal of cellular membrane. Following the Triton washes, myofibrils were washed 3 times in “standard” buffer containing 2 mM magnesium acetate. A final wash in assay buffer (12 mM PIPES, pH 6.8, 60 mM KCl, 1 mM DTT) was performed and brought to 10% sucrose for flash freezing in liquid nitrogen and storage at −80° C.
Activation of Fast Skeletal Myofibrils. Fast fiber activators were identified by measuring the enzymatic activity of muscle myofibril preparations using the proprietary PUMA™ (see, e.g., U.S. Pat. Nos. 6,410,254, 6,743,599, 7,202,051, and 7,378,254) assay system. Myofibril preparations consisted of rabbit skeletal muscle (approximately 90% fast fibers) that had been mechanically homogenized and washed with a detergent (triton X-100) to remove cellular membranes. This preparation retained all of the sarcomeric components in a native conformation and the enzymatic activity was still regulated by calcium. Compounds were tested using a myofibril suspension and a level of calcium sufficient to increase enzymatic activity of the myofibrils to 25% of their maximal rate (termed pCa25). Enzymatic activity was tracked via a pyruvate kinase and lactate dehydrogenase-coupled enzyme system. This assay regenerates myosin-produced ADP into ATP by oxidizing NADH, producing an absorbance change at 340 nm. The buffering system was 12 mM Pipes, 2 mM MgCl2, 1 mM DTT at pH 6.8 (PM12 buffer).
Using procedures similar to those described herein, utilizing reagents and intermediates commercially available (e.g., Sigma-Aldrich,) or readily synthesized by one of skill in the art, the compounds in Table 2 were synthesized, characterized and tested. AC1.4 values were determined according to the procedure described in Example 25, and the reported median AC1.4 values are as follows: A=<1 uM; B=1-10 uM; C=10-20 uM; D=>20 uM.
With `NC(=O)c1ccc(F)c(-c2cnc(NC[C@]3(c4ncccc4F)C[C@H](F)C3)nn2)c1` [4-fluoro-3-[3-({[3-fluoro-1-(3-fluoro(2-pyridyl))cyclobutyl]methyl}amino)(1,2,4-triazin-6-yl)]benzamide], the “Mean AC1.4” value is “A (A=<1 uM)”.
In the case of `O=C(O)c1ccc(F)c(-c2cnc(NCC3(c4ncccc4F)CCC3)nn2)c1` [4-fluoro-3-[3-({[(3-fluoro(2-pyridyl))cyclobulyl]methyl}amino)(1,2,4-triazin-6-yl)]benzoic acid], the “Mean AC1.4” value is listed as “B (B=1-10 uM)”.
As for `NC(=O)c1ccc(F)c(-c2cnc(NCC3(c4ncccc4F)CCC3)nn2)c1` [4-fluoro-3-[3-({[(3-fluoro(2-pyridyl))cyclobutyl]methyl}amino)(1,2,4-triazin-6-yl)]benzamide], the “Mean AC1.4” value was “A (A=<1 uM)”.
Take `CC(C)(Nc1ncc(-c2ccc3[nH][nH]c(=O)c3c2)nn1)c1ncccc1F` [5-(3-{[1-(3-fluoro(2-pyridyl))-isopropyl]amino}-1,2,4-triazin-6-yl)-1H-2-hydroindazol-3-one]: the “Mean AC1.4” value is recorded as “B (B=1-10 uM)”.
Turning to `CC(C)(CNc1ccc(C(N)=O)cn1)c1ccc(F)cc1` [6-{[2-(4-f1uorophenyl)-2-methylpropyl]amino}pyridine-3-carboxamide], the “Mean AC1.4” value is listed as “C (C=10-20 uM)”.
On to `CC(C)(CNc1ccc(C#N)cn1)c1ccc(F)cc1` [6-{[2-(4-fluorophenyl)-2-methylpropyl]amino}pyridine-3-carbonitrile], for which the “Mean AC1.4” value was “C (C=10-20 uM)”.
For `c1ccc(-c2ccnc(NC3(c4ccccc4)CCC3)c2)cc1` [(4-phenyl(2-pyridyl))(phenylcyclobutyl)amine] the value was “C (C=10-20 uM)”; for `c1ccc(-c2ccc(NC3(c4ccccc4)CCC3)nc2)cc1` [(5-phenyl(2-pyridyl))(phenylcyclobutyl)amine], “B (B=1-10 uM)”; for `CC(C)(CNc1ncc(-c2ccc3[nH]ncc3c2)nn1)c1ncccc1F` [(6-(1H-indazol-5-yl)(1,2,4-triazin-3-yl))[2-(3-fluoro(2-pyridyl))-2-methylpropyl]amine], “C (C=10-20 uM)”.
With `Fc1cccnc1C1(CNc2ncc(-c3ccc4[nH]ncc4c3)nn2)CCC1` [(6-(1H-indazol-5-yl)(1,2,4-triazin-3-yl)){[(3-fluoro(2-pyridyl))cyclobutyl]methyl}amine], the “Mean AC1.4” value is listed as “B (B=1-10 uM)”.
As for `CC(C)(CNc1cccc(Br)n1)c1ccc(F)cc1` [(6-bromo(2-pyridyl))[2-(4-fluorophenyl)-2-methylpropyl]amine], the “Mean AC1.4” value is reported as “C (C=10-20 uM)”.
Next, `c1ccc(-c2cccc(NC3(c4ccccc4)CCC3)n2)cc1` [(6-phenyl(2-pyridyl))(phenylcyclobutyl)amine]: “D (D=>20 uM)”.
Next, `CC(C)(Nc1ncc(-c2cc(C(=O)NC[C@H](O)CO)ccc2F)nn1)c1ncccc1F` [N-((2S)-2,3-dihydroxypropyl)[4-fluoro-3-(3-{[1-(3-fluoro(2-pyridyl))-isopropyl]amino}(1,2,4-triazin-6-yl))phenyl]carboxamide]: “C (C=10-20 uM)”.
As to `CC(=O)NCc1cnc(-c2cnc(NC[C@]3(c4ncccc4F)C[C@H](F)C3)nn2)s1` [N-({2-[3-({[3-fluoro-1-(3-fluoro(2-pyridyl))cyclobutyl]methyl}amino)-1,2,4-triazin-6-yl]-1,3-thiazol-5-yl}methyl)acetamide], the “Mean AC1.4” value is listed as “B (B=1-10 uM)”.
As for `COC(=O)NCCc1ccc(NCC(C)(C)c2ccc(F)cc2)nc1` [N-[2-(6-{[2-(4-fluorophenyl)-2-methylpropyl]amino}(3-pyridyl))ethyl]methoxycarboxamide], the “Mean AC1.4” value is recorded as “D (D=>20 uM)”.
For the compound `CC(=O)NCCc1ccc(NCC(C)(C)c2ccc(F)cc2)nc1` [N-[2-(6-{[2-(4-fluorophenyl)-2-methylpropyl]amino}-3-pyridyl)ethyl]acetamide], the “Mean AC1.4” value is “D (D=>20 uM)”.
For the compound `COC(=O)NCc1ccc(NCC(C)(C)c2ccc(F)cc2)nc1` [N-[(6-{[2-(4-fluorophenyl)-2-methylpropyl]amino}(3-pyridyl))methyl]methoxycarboxamide], the “Mean AC1.4” value is “D (D=>20 uM)”.
Consider `CC(=O)NCc1cnc(-c2cnc(NC(C)(C)c3ncccc3Cl)nn2)s1` [N-{[2-(3-{[1-(3-chloro(2-pyridyl))-isopropyl]amino}-1,2,4-triazin-6-yl)-1,3-thiazol-5-yl]methyl}acetamide], for which the “Mean AC1.4” value was “D (D=>20 uM)”.
Regarding `CC(=O)NCc1ccc(F)c(-c2cnc(NC(C)(C)c3ncccc3F)nn2)c1` [N-{[4-fluoro-3-(3-{[1-(3-fluoro(2-pyridyl))-isopropyl]amino}(1,2,4-triazin-6-yl))phenyl]methyl}acetamide], the “Mean AC1.4” value is listed as “D (D=>20 uM)”.
Turning to `CC(C)(Nc1ncc(-c2nccs2)nn1)c1ncccc1F` [[1-(3-fluoro(2-pyridyl))-isopropyl](6-(1,3-thiazol-2-yl)(1,2,4-triazin-3-yl))amine], the “Mean AC1.4” value is given as “D (D=>20 uM)”.
Regarding `CC(C)(Nc1ncc(-c2ncc(CO)s2)nn1)c1ncccc1Cl` [[2-(3-{[1-(3-chloro(2-pyridyl))-isopropyl]amino}-1,2,4-triazin-6-yl)-1,3-thiazol-5-yl]methan-1-ol], the “Mean AC1.4” value is reported as “D (D=>20 uM)”.
In the case of `CC(C)=Cc1cccc(NCC(C)(C)c2ccc(F)cc2)n1` [[2-(4-fluorophenyl)-2-methylpropyl][6-(2-methylprop-1-enyl)(2-pyridyl)]amine], the “Mean AC1.4” value was “D (D=>20 uM)”.
Regarding `CC(C)(CNc1ccc(CCNS(C)(=O)=O)cn1)c1ccc(F)cc1` [[2-(6-{[2-(4-fluorophenyl)-2-methylpropyl]amino}(3-pyridyl))ethyl](methylsulfonyl)amine], the “Mean AC1.4” value is listed as “D (D=>20 uM)”.
As to `CC(C)(CNc1cc(-c2ccc(F)cc2)ccn1)c1ccc(F)cc1` [[4-(4-fluorophenyl)(2-pyridyl)][2-(4-fluorophenyl)-2-methylpropyl]amine], the “Mean AC1.4” value was “D (D=>20 uM)”.
For `CC(C)(Nc1ncc(-c2cc(NS(C)(=O)=O)ccc2F)nn1)c1ncccc1F` [[4-fluoro-3-(3-{[1-(3-fluoro(2-pyridyl))-isopropyl]amino}(1,2,4-triazin-6-yl))phenyl](methylsulfonyl)amine] the value was “C (C=10-20 uM)”; for `CC(C)(Nc1ncc(-c2cc(CO)ccc2F)nn1)c1ncccc1F` [[4-fluoro-3-(3-{[1-(3-fluoro(2-pyridyl))-isopropyl]amino}(1,2,4-triazin-6-yl))phenyl]methan-1-ol], “C (C=10-20 uM)”.
As for `CC(C)(CNc1ncc(-c2ccc3[nH]nc(N)c3c2)nn1)c1ccc(F)cc1` [[6-(3-amino(1H-indazol-5-yl))(1,2,4-triazin-3-yl)][2-(4-fluorophenyl)-2-methylpropyl]amine], the “Mean AC1.4” value is recorded as “A (A=<1 uM)”.
Consider `Nc1n[nH]c2ccc(-c3cnc(NCC4(c5ncccc5F)CCC4)nn3)cc12` [[6-(3-amino(1H-indazol-5-yl))(1,2,4-triazin-3-yl)]{[(3-fluoro(2-pyridyl))cyclobutyl]methyl}amine], for which the “Mean AC1.4” value was “B (B=1-10 uM)”.
For `CC(C)(Nc1ncc(-c2cc(N)ccc2F)nn1)c1ncccc1F` [[6-(3-amino-6-fluorophenyl)(1,2,4-triazin-3-yl)][1-(3-fluoro(2-pyridyl))-isopropyl]amine], the “Mean AC1.4” value is on record as “B (B=1-10 uM)”.
Take `CC(C)(CNc1cccc(-c2ccc(F)cc2)n1)c1ccc(F)cc1` [[6-(4-fluorophenyl)(2-pyridyl)][2-(4-fluorophenyl)-2-methylpropyl]amine]: the “Mean AC1.4” value is reported as “D (D=>20 uM)”.
Take `CC(C)(Nc1ncc(-c2cc(NS(N)(=O)=O)ccc2F)nn1)c1ncccc1F` [amino[4-fluoro-3-(3-{[1-(3-fluoro(2-pyridyl))-isopropyl]amino}(1,2,4-triazin-6-yl))phenyl]sulfonamide]: the “Mean AC1.4” value is listed as “B (B=1-10 uM)”.
`COC(=O)c1ccc(F)c(-c2cnc(NCC(C)(C)c3ncccc3Cl)nn2)c1` [methyl 3-(3-{[2-(3-chloro(2-pyridyl))-2-methylpropyl]amino}(1,2,4-triazin-6-yl))-4-fluorobenzoate]: the “Mean AC1.4” value is “D (D=>20 uM)”.
For `COC(=O)c1ccc(F)c(-c2cnc(NCC3(c4ncccc4Cl)CCC3)nn2)c1` [methyl 3-[3-({[(3-chloro(2-pyridyl))cyclobutyl]methyl}amino)(1,2,4-triazin-6-yl)]-4-fluorobenzoate] the value was “B (B=1-10 uM)”.

These data come from patent US9994528B2, “Certain amino-pyridines and amino-triazines, compositions thereof, and methods for their use” (Cytokinetics, Inc., priority 2010, dated 2018).
